Data published in PubChem BioAssay AID328 (DTP/NCI, 2004).
Several values for one entry are separate records, joined by “and”; a condition that tells them apart may be missing. Equal values may be shown once. Toxic doses and inconclusive results are not listed.

System: BDF1 mice, P388 leukemia ip, median survival T/C
Assay: NCI In Vivo Anticancer Drug Screen. Data for tumor model P388 Leukemia (intraperitoneal) in B6D2F1 (BDF1) mice
Conditions: endpoint: median survival time, higher = longer survival
Summary of the method: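 T/C = treated-group survival ÷ vehicle-control survival; tumour transplanted into mice before dosing.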

[1] = dose: 50.0 mg/kg/injection, schedule: Q01DX009 (ip), vehicle: saline with Tween-80
[2] = dose: 100.0 mg/kg/injection, schedule: Q01DX009 (ip), vehicle: saline with Tween-80
[3] = dose: 200.0 mg/kg/injection, schedule: Q01DX009 (ip), vehicle: saline with Tween-80
[4] = dose: 25.0 mg/kg/injection, schedule: Q04DX003 (ip), vehicle: saline with Tween-80
[5] = dose: 50.0 mg/kg/injection, schedule: Q04DX003 (ip), vehicle: saline with Tween-80
[6] = dose: 100.0 mg/kg/injection, schedule: Q01DX009 (ip), vehicle: Klucel (hydroxypropylcellulose) (HPC)
[7] = dose: 400.0 mg/kg/injection, schedule: Q01DX009 (ip), vehicle: saline with Tween-80
[8] = dose: 100.0 mg/kg/injection, schedule: Q04DX003 (ip), vehicle: saline with Tween-80
[9] = dose: 200.0 mg/kg/injection, schedule: Q04DX003 (ip), vehicle: saline with Tween-80
[10] = dose: 400.0 mg/kg/injection, schedule: Q04DX003 (ip), vehicle: saline with Tween-80
[11] = dose: 50.0 mg/kg/injection, schedule: Q01DX009 (ip), vehicle: Klucel (hydroxypropylcellulose) (HPC)
[12] = dose: 25.0 mg/kg/injection, schedule: Q01DX009 (ip), vehicle: saline with Tween-80

With `CC1(C)CC2(C)OC2C2(C1)N=NC(=O)O2` (stereo not given) the T/C [1] was 98 % of control, the T/C [2] was 107 % of control and the T/C [3] was 121 % of control.

In the case of `COc1ccc(/C(C#N)=C2C=C/C(=N\O)C(C)=C/2Cl)cc1`, the T/C (dose: 12.5 mg/kg/injection, schedule: Q04DX003 (ip), vehicle: saline with Tween-80) was 91 % of control, the T/C [4] was 91 % of control and the T/C [5] was 87 % of control.

`O=C1CCC(NC2OC(=O)c3ccccc32)C(=O)O1` (stereo not given) was tested, and the T/C [1] was 111 % of control, the T/C [2] was 102 % of control and the T/C [3] was 109 % of control.

In the case of `Cc1cc(Cl)ccc1NC(=O)Oc1nc2ccccc2o1`, the T/C [1] was 123 % of control, the T/C [2] was 106 % of control and the T/C [3] was 117 % of control.

For `COc1cc2c(cc1OC)C1CNC(=O)C1C(c1ccccc1)C2` (stereo not given), the T/C (dose: 50.0 mg/kg/injection, schedule: Q01DX001 (ip), vehicle: Klucel (hydroxypropylcellulose) (HPC)) was 100 % of control, the T/C (dose: 100.0 mg/kg/injection, schedule: Q01DX001 (ip), vehicle: Klucel (hydroxypropylcellulose) (HPC)) was 95 % of control and the T/C (dose: 200.0 mg/kg/injection, schedule: Q01DX001 (ip), vehicle: Klucel (hydroxypropylcellulose) (HPC)) was 100 % of control. For the same molecule, the T/C (dose: 400.0 mg/kg/injection, schedule: Q01DX001 (ip), vehicle: Klucel (hydroxypropylcellulose) (HPC)) was 96 % of control.

With `COc1cc([N+](=O)[O-])c(/C=C2/c3cc(OC)c(OC)cc3CCN2C)cc1Br` the T/C [6] was 109 % of control, the T/C (dose: 100.0 mg/kg/injection, schedule: Q04DX003 (ip), vehicle: Klucel (hydroxypropylcellulose) (HPC)) was 100 % of control and the T/C (dose: 200.0 mg/kg/injection, schedule: Q01DX009 (ip), vehicle: Klucel (hydroxypropylcellulose) (HPC)) was 90 % of control. For the same molecule, the T/C (dose: 200.0 mg/kg/injection, schedule: Q04DX003 (ip), vehicle: Klucel (hydroxypropylcellulose) (HPC)) was 100 % of control, the T/C (dose: 400.0 mg/kg/injection, schedule: Q01DX009 (ip), vehicle: Klucel (hydroxypropylcellulose) (HPC)) was 104 % of control and the T/C (dose: 400.0 mg/kg/injection, schedule: Q04DX003 (ip), vehicle: Klucel (hydroxypropylcellulose) (HPC)) was 100 % of control.

`Cc1ccc(C(=O)O)c(=O)[nH]1` was tested, and the T/C [1] was 98 % of control, the T/C [2] was 95 % of control and the T/C [3] was 100 % of control. For the same molecule, the T/C [7] was 94 % of control.

In the case of `COc1cc2c(c3c1c(=O)c1cc(O)ccc1n3C)C=CC(C)(C)O2`, the T/C (dose: 5.0 mg/kg/injection, schedule: Q01DX009 (ip), vehicle: Klucel (hydroxypropylcellulose) (HPC)) was 114 % of control, the T/C (dose: 10.0 mg/kg/injection, schedule: Q01DX009 (ip), vehicle: Klucel (hydroxypropylcellulose) (HPC)) was 113 % of control and the T/C (dose: 20.0 mg/kg/injection, schedule: Q01DX009 (ip), vehicle: Klucel (hydroxypropylcellulose) (HPC)) was 112 % of control. The T/C (dose: 40.0 mg/kg/injection, schedule: Q01DX009 (ip), vehicle: Klucel (hydroxypropylcellulose) (HPC)) was 106 % of control.

`CC/C(=C(\CC)c1ccc(OC)cc1)c1ccc(OC)cc1` was tested, and the T/C [1] was 90 % of control, the T/C [2] was 90 % of control and the T/C [8] was 86 % of control. For the same molecule, the T/C [3] was 90 % of control, the T/C [9] was 90 % of control and the T/C [10] was 95 % of control.

`COc1ccc2[nH]c3cc(Cl)ccc3c(=O)c2c1` was tested, and the T/C [2] was 100 % of control, the T/C [3] was 100 % of control and the T/C [7] was 90 % of control.

In the case of `CC(=O)OC1CCC2(C)C3CCC4(C)C(=CCC5(C(=O)O)CCC(C)(C)CC45)C3(C)CCC2C1(C)C` (stereo not given), the T/C (dose: 0.12 mg/kg/injection, schedule: Q01DX009 (ip), vehicle: alcohol) was 111 % of control, the T/C (dose: 0.25 mg/kg/injection, schedule: Q01DX009 (ip), vehicle: alcohol) was 106 % of control and the T/C (dose: 0.5 mg/kg/injection, schedule: Q01DX009 (ip), vehicle: alcohol) was 116 % of control.

For `COC(=O)C1C(=O)COC1C` (stereo not given), the T/C (dose: 12.5 mg/kg/injection, schedule: Q01DX005 (ip), vehicle: saline with Tween-80) was 109 % of control, the T/C (dose: 25.0 mg/kg/injection, schedule: Q01DX005 (ip), vehicle: saline with Tween-80) was 112 % of control and the T/C (dose: 50.0 mg/kg/injection, schedule: Q01DX005 (ip), vehicle: saline with Tween-80) was 110 % of control.

In the case of `O=C1c2sccc2-c2cccc3cccc1c23`, the T/C [5] was 96 % of control, the T/C [8] was 93 % of control and the T/C [9] was 94 % of control. The T/C [10] was 86 % of control.

For `CC(=O)n1nc2c(c1CC(C)C)C(=O)C(Nc1ccccc1)=CC2=O`, the T/C (dose: 100.0 mg/kg/injection, schedule: Q04DX002 (ip), vehicle: saline with Tween-80) was 102 % of control, the T/C (dose: 200.0 mg/kg/injection, schedule: Q04DX002 (ip), vehicle: saline with Tween-80) was 108 % of control and the T/C (dose: 400.0 mg/kg/injection, schedule: Q04DX002 (ip), vehicle: saline with Tween-80) was 106 % of control.

For `CCC1CC2CCC(c3cc4c(cc3OC)N(C)C3C(O)(C(=O)OC)C(OC(C)=O)C5(CC)C=CCN6CCC43C65)c3[nH]c4ccccc4c3CCN(C1)C2` (stereo not given), the T/C (dose: 0.03 mg/kg/injection, schedule: Q01DX010 (ip), vehicle: saline) was 90 % of control, the T/C (dose: 0.06 mg/kg/injection, schedule: Q01DX010 (ip), vehicle: saline) was 100 % of control and the T/C (dose: 0.13 mg/kg/injection, schedule: Q01DX010 (ip), vehicle: saline) was 90 % of control. For the same molecule, the T/C (dose: 0.25 mg/kg/injection, schedule: Q01DX010 (ip), vehicle: saline) was 100 % of control and the T/C (dose: 0.5 mg/kg/injection, schedule: Q01DX010 (ip), vehicle: saline) was 95 % of control.

For `CCCCCCC(=O)NC1=C(N2CC2)C(=O)C(NC(=O)CCCCCC)=C(N2CC2)C1=O`, the T/C (dose: 25.0 mg/kg/injection, schedule: Q01DX009 (ip), vehicle: Klucel (hydroxypropylcellulose) (HPC)) was 182 % of control, the T/C (dose: 25.0 mg/kg/injection, schedule: Q01DX009 (ip), vehicle: saline) was 234 % of control and the T/C [11] was 208 % of control. For the same molecule, the T/C (dose: 50.0 mg/kg/injection, schedule: Q01DX009 (ip), vehicle: saline) was 241 % of control, the T/C (dose: 66.0 mg/kg/injection, schedule: Q04DX003 (ip), vehicle: saline with Tween-80) was 166 % of control and the T/C [6] was 154 % of control. The T/C (dose: 100.0 mg/kg/injection, schedule: Q01DX009 (ip), vehicle: saline) was 328 % of control, the T/C [8] was 191 % of control and 200 % of control and the T/C (dose: 150.0 mg/kg/injection, schedule: Q04DX003 (ip), vehicle: saline with Tween-80) was 200 % of control. The T/C (dose: 200.0 mg/kg/injection, schedule: Q01DX009 (ip), vehicle: saline) was 107 % of control, the T/C [9] was 154 % of control and the T/C [10] was 95 % of control.

In the case of `CCN1/C(=C/C=C/C=C\C=C\c2sc3ccc4ccccc4c3[n+]2CC)Sc2ccc3ccccc3c21`, the T/C (dose: 1.56 mg/kg/injection, schedule: Q04DX002 (ip), vehicle: saline with Tween-80) was 173 % of control and the T/C (dose: 3.12 mg/kg/injection, schedule: Q04DX002 (ip), vehicle: saline with Tween-80) was 162 % of control.

With `C/C=C/C(=O)NCC(C(C)C)/[N+]([O-])=N/O` (stereo not given) the T/C (dose: 6.25 mg/kg/injection, schedule: Q01DX009 (ip), vehicle: saline with Tween-80) was 104 % of control, the T/C (dose: 12.5 mg/kg/injection, schedule: Q01DX009 (ip), vehicle: saline with Tween-80) was 116 % of control and the T/C [12] was 87 % of control.

With `CC(=O)Nc1cc(C)cc(CO)c1C` the T/C [4] was 86 % of control, the T/C [5] was 96 % of control and the T/C [8] was 93 % of control. The T/C [9] was 88 % of control.

In the case of `O=[N+]([O-])c1ccc(S(=O)(=O)Cc2ccccc2)c2c1no[n+]2[O-]`, the T/C [12] was 116 % of control and the T/C [1] was 116 % of control.

For `COP(=O)(O)C(Cc1ccccc1)NC(=O)OCc1ccccc1` (stereo not given), the T/C (dose: 25.0 mg/kg/injection, schedule: Q01DX005 (ip), vehicle: distilled water + Tween-80) was 100 % of control, the T/C (dose: 50.0 mg/kg/injection, schedule: Q01DX005 (ip), vehicle: distilled water + Tween-80) was 100 % of control and the T/C (dose: 100.0 mg/kg/injection, schedule: Q01DX005 (ip), vehicle: distilled water + Tween-80) was 94 % of control.

With `c1ccc2c(c1)ccc1[nH]c3ccccc3c12` the T/C [8] was 116 % of control, the T/C [9] was 112 % of control and the T/C [10] was 105 % of control.

`CNC(CCc1ccccc1)C(=O)O` (stereo not given) was tested, and the T/C (dose: 50.0 mg/kg/injection, schedule: Q04DX003 (ip), vehicle: saline sonified) was 95 % of control, the T/C (dose: 100.0 mg/kg/injection, schedule: Q04DX003 (ip), vehicle: saline sonified) was 91 % of control and the T/C (dose: 200.0 mg/kg/injection, schedule: Q04DX003 (ip), vehicle: saline sonified) was 91 % of control.

For `O=C(Nc1nnc(C(F)(F)F)s1)c1c(F)cccc1F`, the T/C [1] was 92 % of control.

With `NC(Cc1ccc(O)cc1)C(=O)OCc1ccccc1` (stereo not given) the T/C [8] was 104 % of control, the T/C [9] was 104 % of control and the T/C [10] was 100 % of control.

In the case of `Cc1noc(-c2ccc([N+](=O)[O-])o2)n1`, the T/C [11] was 93 % of control and the T/C [6] was 101 % of control.

`CC(=O)Oc1c(Br)cc(Br)cc1-c1ccccc1` was tested, and the T/C [1] was 92 % of control, the T/C [2] was 92 % of control and the T/C [3] was 92 % of control. For the same molecule, the T/C [7] was 90 % of control.

With `COc1cc(OC)cc(C2N(Cc3ccc(OC)c(OC)c3)CCN2Cc2ccc(OC)c(OC)c2)c1` the T/C [2] was 100 % of control, the T/C [8] was 100 % of control and the T/C [3] was 109 % of control. For the same molecule, the T/C [9] was 100 % of control, the T/C [7] was 109 % of control and the T/C [10] was 115 % of control.
